#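 Exposure lasted 48 hours, with cells grown in 96-well plates and compounds tested at five concentrations. Definition used: TGI = concentration required for complete inhibition of growth.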
# Tests used:
# Assay in all cases: NCI-60 cell line screen, 48 h
# [1] = tested on: SK-MEL-2 melanoma
# [2] = tested on: SK-OV-3 ovarian
# [3] = tested on: NCI-H23 lung
# [4] = tested on: HOP-62 NSCLC
# [5] = tested on: K-562 leukemia
# [6] = tested on: T-47D breast
# [7] = tested on: IGROV1 ovarian
# [8] = tested on: HT29 colon
# [9] = tested on: MOLT-4 leukemia
# [10] = tested on: MDA-MB-435
# [11] = tested on: LOX IMVI melanoma
# [12] = tested on: SK-MEL-28 melanoma
# [13] = tested on: ACHN renal
# [14] = tested on: HS 578T breast
# [15] = tested on: A549 NSCLC
# [16] = tested on: MDA-MB-231 breast
# [17] = tested on: HOP-92 NSCLC
# [18] = tested on: MCF7 breast
# [19] = tested on: HCT-15 colon
# [20] = tested on: HCC-2998 colon
# [21] = tested on: UACC-62 melanoma
# [22] = tested on: HCT-116 colon
# [23] = tested on: DU-145 prostate
# [24] = tested on: NCI/ADR-RES ovarian
# [25] = tested on: OVCAR-4 ovarian
# [26] = tested on: SF-295 CNS
# [27] = tested on: 786-0 renal
# [28] = tested on: NCI-H460 lung
# [29] = tested on: SW-620 colon
# [30] = tested on: PC-3 prostate
# [31] = tested on: SR leukemia
# [32] = tested on: UO-31 renal
# [33] = tested on: SF-268 CNS
# [34] = tested on: SNB-75 CNS
# [35] = tested on: OVCAR-5 ovarian
# [36] = tested on: MDA-N
# [37] = tested on: KM12 colon
# [38] = tested on: SK-MEL-5 melanoma
# [39] = tested on: HL-60(TB) leukemia
# [40] = tested on: OVCAR-8 ovarian
# [41] = tested on: NCI-H226 lung
# [42] = tested on: TK-10 renal
# [43] = tested on: OVCAR-3 ovarian
# [44] = tested on: CCRF-CEM leukemia
# [45] = tested on: MALME-3M melanoma
# [46] = tested on: COLO 205 colon
# [47] = tested on: U251 CNS
# [48] = tested on: SF-539 CNS
# [49] = tested on: SN12C renal
# [50] = tested on: EKVX NSCLC
# [51] = tested on: M14 melanoma
# [52] = tested on: RPMI-8226 leukemia
# [53] = tested on: A498 renal
# [54] = tested on: NCI-H522 lung
# [55] = tested on: UACC-257 melanoma
# [56] = tested on: RXF 393 renal
# [57] = tested on: BT-549 breast
# [58] = tested on: CAKI-1 renal
# [59] = tested on: SNB-19 CNS
smiles,measurement,setting,value
CCOC(=O)C1(Cc2ccccc2)Cc2ccccc2C1=O (stereo not given),TGI,[1],30.7 µM
same,TGI,[2],> 100 µM
same,TGI,[3],69.9 µM
same,TGI,[4],> 100 µM
same,TGI,[5],> 100 µM
same,TGI,[6],88.3 µM
same,TGI,[7],> 100 µM
same,TGI,[8],65.2 µM
same,TGI,[9],57.5 µM
same,TGI,[10],45.3 µM
same,TGI,[11],> 100 µM
same,TGI,[12],92.5 µM
same,TGI,[13],> 100 µM
same,TGI,[14],> 100 µM
same,TGI,[15],> 100 µM
same,TGI,[16],> 100 µM
same,TGI,[17],56 µM
same,TGI,[18],> 100 µM
same,TGI,[19],> 100 µM
same,TGI,[20],> 100 µM
same,TGI,[21],81.7 µM
same,TGI,[22],> 100 µM
same,TGI,[23],> 100 µM
same,TGI,[24],62.8 µM
same,TGI,[25],> 100 µM
same,TGI,[26],> 100 µM
same,TGI,[27],> 100 µM
same,TGI,[28],> 100 µM
same,TGI,[29],> 100 µM
same,TGI,[30],> 100 µM
same,TGI,[31],78.2 µM
same,TGI,[32],57.3 µM
same,TGI,[33],> 100 µM
same,TGI,[34],> 100 µM
same,TGI,[35],> 100 µM
same,TGI,[36],44.6 µM
same,TGI,[37],> 100 µM
same,TGI,[38],28.8 µM
same,TGI,[39],> 100 µM
same,TGI,[40],> 100 µM
same,TGI,[41],58.6 µM
same,TGI,[42],> 100 µM
same,TGI,[43],> 100 µM
same,TGI,[44],95.5 µM
same,TGI,[45],52.3 µM
same,TGI,[46],37.7 µM
same,TGI,[47],> 100 µM
same,TGI,[48],96.2 µM
same,TGI,[49],> 100 µM
same,TGI,[50],97.8 µM
same,TGI,[51],40.9 µM
same,TGI,[52],60.8 µM
COc1c(O)cc(C(=O)O[C@@H]2Cc3c(O)cc(O)cc3O[C@@H]2c2cc(O)c(O)c(O)c2)cc1O,TGI,[1],> 100 µM
same,TGI,[2],> 100 µM
same,TGI,[3],98.5 µM
same,TGI,[4],92.3 µM
same,TGI,[5],46.8 µM
same,TGI,[6],86 µM
same,TGI,[7],> 100 µM
same,TGI,[53],> 100 µM
same,TGI,[8],37.1 µM
same,TGI,[54],54.6 µM
same,TGI,[9],56.8 µM
same,TGI,[55],> 100 µM
same,TGI,[10],33.3 µM
same,TGI,[11],40.2 µM
same,TGI,[56],37.2 µM
same,TGI,[12],> 100 µM
same,TGI,[57],65.2 µM
same,TGI,[13],> 100 µM
same,TGI,[58],> 100 µM
same,TGI,[14],> 100 µM
same,TGI,[15],51.2 µM
same,TGI,[17],> 100 µM
same,TGI,[18],42 µM
same,TGI,[19],86.2 µM
same,TGI,[20],> 100 µM
same,TGI,[21],78.4 µM
same,TGI,[22],35.4 µM
same,TGI,[23],46.7 µM
same,TGI,[24],> 100 µM
same,TGI,[25],46.4 µM
same,TGI,[26],46.2 µM
same,TGI,[27],33.8 µM
same,TGI,[28],66.7 µM
same,TGI,[29],59.8 µM
same,TGI,[30],> 100 µM
same,TGI,[31],95.8 µM
same,TGI,[32],50.5 µM
same,TGI,[33],46.7 µM
same,TGI,[35],> 100 µM
same,TGI,[36],58.4 µM
same,TGI,[37],39 µM
same,TGI,[38],44.3 µM
same,TGI,[39],63 µM
same,TGI,[40],54.1 µM
same,TGI,[42],> 100 µM
same,TGI,[43],> 100 µM
same,TGI,[45],> 100 µM
same,TGI,[49],37.3 µM
same,TGI,[50],61.6 µM
same,TGI,[51],> 100 µM
same,TGI,[52],57.7 µM
same,TGI,[59],43 µM
Cn1c(=S)sc2nc3ccccc3n2c1=S,TGI,[1],> 100 µM
same,TGI,[2],36.5 µM
same,TGI,[3],30.7 µM
same,TGI,[4],35.2 µM
same,TGI,[5],21.5 µM
same,TGI,[6],39.6 µM
same,TGI,[7],30.9 µM
same,TGI,[53],46.9 µM
same,TGI,[8],25.8 µM
same,TGI,[54],15.1 µM
same,TGI,[9],38.7 µM
same,TGI,[55],28.4 µM
same,TGI,[10],35.5 µM
same,TGI,[11],26.2 µM
same,TGI,[56],27.4 µM
same,TGI,[12],25.1 µM
same,TGI,[13],24 µM
same,TGI,[58],39.2 µM
same,TGI,[14],95.9 µM
same,TGI,[15],97.5 µM
same,TGI,[16],38 µM
same,TGI,[17],25.8 µM
same,TGI,[18],5.49 µM
same,TGI,[19],29.4 µM
same,TGI,[20],35.2 µM
same,TGI,[21],32.8 µM
same,TGI,[22],17.9 µM
same,TGI,[23],19 µM
same,TGI,[24],44.8 µM
same,TGI,[25],42.3 µM
same,TGI,[26],50.6 µM
same,TGI,[27],33.6 µM
same,TGI,[28],27.9 µM
same,TGI,[29],29.2 µM
same,TGI,[30],92.3 µM
same,TGI,[31],23.2 µM
same,TGI,[32],18.8 µM
same,TGI,[33],24.7 µM
same,TGI,[34],48.8 µM
same,TGI,[35],29.1 µM
same,TGI,[36],38.5 µM
same,TGI,[37],27.4 µM
same,TGI,[38],27 µM
same,TGI,[39],5.07 µM
same,TGI,[40],30.1 µM
same,TGI,[41],58.7 µM
same,TGI,[42],55.4 µM
same,TGI,[43],25.4 µM
same,TGI,[44],43.7 µM
same,TGI,[45],31.2 µM
same,TGI,[46],25.9 µM
same,TGI,[47],25.1 µM
same,TGI,[48],27.1 µM
same,TGI,[49],39.1 µM
same,TGI,[50],44.6 µM
same,TGI,[51],18.7 µM
same,TGI,[52],88.1 µM
same,TGI,[59],33.6 µM
[N-]=[N+]=NC1=C(c2ccccc2)C(=O)c2cccc3cccc1c23,TGI,[1],> 100 µM
same,TGI,[2],> 100 µM
same,TGI,[3],> 100 µM
same,TGI,[4],91.1 µM
same,TGI,[5],> 100 µM
same,TGI,[6],82.1 µM
same,TGI,[7],95.2 µM
same,TGI,[53],8.29 µM
same,TGI,[8],27 µM
same,TGI,[9],21.1 µM
same,TGI,[55],29.2 µM
same,TGI,[10],> 100 µM
same,TGI,[11],> 100 µM
same,TGI,[56],60.6 µM
same,TGI,[12],> 100 µM
same,TGI,[57],34.1 µM
same,TGI,[58],> 100 µM
same,TGI,[14],48.6 µM
same,TGI,[15],> 100 µM
same,TGI,[17],91.1 µM
same,TGI,[18],> 100 µM
same,TGI,[19],> 100 µM
same,TGI,[20],> 100 µM
same,TGI,[21],34.9 µM
same,TGI,[22],> 100 µM
same,TGI,[23],> 100 µM
same,TGI,[24],> 100 µM
same,TGI,[25],> 100 µM
same,TGI,[26],26.5 µM
same,TGI,[27],88.1 µM
same,TGI,[28],28.7 µM
same,TGI,[29],> 100 µM
same,TGI,[30],> 100 µM
same,TGI,[31],> 100 µM
same,TGI,[32],> 100 µM
same,TGI,[33],> 100 µM
same,TGI,[34],76.5 µM
same,TGI,[35],> 100 µM
same,TGI,[36],> 100 µM
same,TGI,[37],> 100 µM
same,TGI,[38],18.1 µM
same,TGI,[39],> 100 µM
same,TGI,[42],74.6 µM
same,TGI,[43],> 100 µM
same,TGI,[44],> 100 µM
same,TGI,[45],> 100 µM
same,TGI,[46],> 100 µM
same,TGI,[47],> 100 µM
same,TGI,[48],91.1 µM
same,TGI,[49],> 100 µM
same,TGI,[51],> 100 µM
same,TGI,[52],> 100 µM
same,TGI,[59],> 100 µM

# Reference: PubChem BioAssay (NCI)
